Experimental data published in patent US10947188B2, “Small molecule ferroptosis inducers” (THE TRUSTEES OF COLUMBIA UNIVERSITY IN THE CITY OF NEW YORK, priority 2016, dated 2021).

Columns and labels:
HT-1080 = test: Modulatory profiling: Alamar Blue viability, lethal compound cotreated with death modulator (EC50, AUC); format: cell-based; parameters: AUC, modulator HT.3MA / AUC, modulator HT.ALLN / AUC HT.ATA / AUC HT.ActD / AUC HT.BHA / AUC HT.BHT / AUC HT.BocD / AUC HT.CHX / AUC HT.Co2+ / AUC HT.DPQ / AUC HT.EGTA / AUC HT.Lmim / AUC HT.NAD+ / AUC HT.Nec-1 / AUC HT.SP600125 / AUC HT.TLCK / AUC HT.U0126: unit not given beside the values; on AUC HT.BHA: reference of the scale not given here; on AUC HT.EGTA: reference of the scale not given here
BJeLR = test: as above; format: cell-based, human; parameters: AUC, modulator BJ.Gd3+ / AUC, modulator BJ.LNAME / AUC, modulator BJ.Lmin / AUC, modulator BJ.3MA / AUC, modulator BJ.ALLN / AUC, modulator BJ.Boc D / AUC, modulator BJ.CHX / AUC, modulator BJ.Co2+ / AUC, modulator BJ.Nec-1 / AUC, modulator BJ.Pepstatin / AUC, modulator BJ.TLCK / AUC, modulator BJ.atoc / AUC, modulator BJ.trolox / AUC, modulator BJ.zVAD: unit not given beside the values; settings: BJeLR cells, modulatory profile value (AUC); on AUC, modulator BJ.3MA: reference of the scale not given here; on AUC, modulator BJ.ALLN: reference of the scale not given here; on AUC, modulator BJ.Boc D: reference of the scale not given here; on AUC, modulator BJ.CHX: reference of the scale not given here; on AUC, modulator BJ.Co2+: reference of the scale not given here; on AUC, modulator BJ.DPQ: reference of the scale not given here; on AUC, modulator BJ.Gd3+: reference of the scale not given here; on AUC, modulator BJ.LNAME: reference of the scale not given here; on AUC, modulator BJ.NAD+: reference of the scale not given here; on AUC, modulator BJ.NMMA: reference of the scale not given here; on AUC, modulator BJ.Nec-1: reference of the scale not given here; on AUC, modulator BJ.Pepstatin: reference of the scale not given here; on AUC, modulator BJ.TLCK: reference of the scale not given here

CCCCS(=O)(=O)/C=C\C=C/S(=O)(=O)CCCC [CIL49]
AUC HT.ATA (HT-1080; HT-1080, modulator ATA): 0.04768
AUC HT.ActD (HT-1080; HT-1080, modulator ActD): −0.01874
AUC HT.BHA (HT-1080; HT-1080, modulator BHA): −0.01433
AUC HT.BHT (HT-1080; HT-1080, modulator BHT): −0.08297
AUC HT.BocD (HT-1080; HT-1080, modulator BocD): −0.0224
AUC HT.CHX (HT-1080; HT-1080, modulator CHX): −0.009484
AUC HT.Co2+ (HT-1080; HT-1080, modulator Co2+): 0.008808
AUC HT.CspA (HT-1080; HT-1080, modulator CspA): 0.04471
AUC HT.DPQ (HT-1080; HT-1080, modulator DPQ): −0.02418
AUC HT.EGTA (HT-1080; HT-1080, modulator EGTA): 0.02252
AUC HT.Gd3+ (HT-1080; HT-1080, modulator Gd3+): 0.000907
AUC HT.LNAME (HT-1080; HT-1080, modulator LNAME): 0.01289
AUC HT.Lmim (HT-1080; HT-1080, modulator Lmim): −0.03685
AUC HT.NAD+ (HT-1080; HT-1080, modulator NAD+): −0.01413
AUC HT.NMMA (HT-1080; HT-1080, modulator NMMA): 0.000429
HT.atoc (AUC) (HT-1080; HT-1080, modulator atoc): 0.02137
HT.bCarotene (AUC) (HT-1080; HT-1080, modulator bCarotene): −0.02606
HT.deferox (AUC) (HT-1080; HT-1080, modulator deferox): 0.07453
HT.digoxin (AUC) (HT-1080; HT-1080, modulator digoxin): 0.001647
HT.trolox (AUC) (HT-1080; HT-1080, modulator trolox): −0.01523
HT.zVAD (AUC) (HT-1080; HT-1080, modulator zVAD): 0.009879
AUC, modulator HT.3MA (HT-1080; HT-1080 cells, lethal compound cotreated with modulator 3MA, modulatory profile value (AUC)): 0.05435
AUC, modulator HT.ALLN (HT-1080; HT-1080 cells, lethal compound cotreated with modulator ALLN, modulatory profile value (AUC)): 0.0662
AUC, modulator BJ.3MA (BJeLR; lethal compound cotreated with modulator 3MA): 0.04504
AUC, modulator BJ.ALLN (BJeLR; lethal compound cotreated with modulator ALLN): −0.05864
AUC, modulator BJ.Boc D (BJeLR; lethal compound cotreated with modulator Boc D): −0.0257
AUC, modulator BJ.CHX (BJeLR; lethal compound cotreated with modulator CHX): 0.1692
AUC, modulator BJ.Co2+ (BJeLR; lethal compound cotreated with modulator Co2+): 0.009716
AUC, modulator BJ.DPQ (BJeLR; lethal compound cotreated with modulator DPQ): −0.002084
AUC, modulator BJ.Gd3+ (BJeLR; lethal compound cotreated with modulator Gd3+): −0.006048
AUC, modulator BJ.LNAME (BJeLR; lethal compound cotreated with modulator LNAME): −0.007857
AUC, modulator BJ.Lmin/NAD+ (BJeLR; lethal compound cotreated with modulator Lmin/NAD+): 0.07067
AUC, modulator BJ.Lmin (BJeLR; lethal compound cotreated with modulator Lmin): 0.03689
AUC, modulator BJ.NAD+ (BJeLR; lethal compound cotreated with modulator NAD+): 0.02344
AUC, modulator BJ.NMMA (BJeLR; lethal compound cotreated with modulator NMMA): 0.006898
AUC, modulator BJ.Nec-1 (BJeLR; lethal compound cotreated with modulator Nec-1): 0.001972
AUC, modulator BJ.Pepstatin (BJeLR; lethal compound cotreated with modulator Pepstatin): 0.02852
AUC, modulator BJ.TLCK (BJeLR; lethal compound cotreated with modulator TLCK): −0.03549
AUC, modulator BJ.atoc (BJeLR; lethal compound cotreated with modulator atoc): −0.008324
AUC, modulator BJ.trolox (BJeLR; lethal compound cotreated with modulator trolox): −0.02337
AUC, modulator BJ.zVAD (BJeLR; lethal compound cotreated with modulator zVAD): −0.001762
